Assays:
Format in all cases: cell-based, human
[1] = system: PANC-1 pancreatic adenocarcinoma cell line; test: DIMSCAN cytotoxicity, fenretinide + L-threo-sphinganines 3:1 (Example B18)
Protocol: (§1) Cytotoxicity Assay—Once again, cytotoxicity is determined using the DIMSCAN assay system (R. Proffitt et al., Cytometry 24, 204-213 (1996); T. Frgala et al., Mol Cancer Ther. 6:886-97, 2007). The system employs digital imaging microscopy to quantify viable cells, which selectively accumulate fluorescein diacetate to become brightly fluorescent. The system is capable of measuring cytotoxicity over a 4-5 log dynamic range by quenching the residual fluorescence of dead and dying cells with eosin Y and quantifying the total fluorescence of viable cells using digital thresholding. Measured fluorescence is directly proportionate to the number of viable cells. A comparison of the total fluorescence of a drug-treated cell population to the fluorescence of a similar number of untreated cells yields a survival fraction. In brief, 2000 to 10,000 cells/well (depending on size and growth rates) are replicate plated into 60 wells of a 96-well tissue culture plate in 0.1 mL of whole medium and allowed to attach overnight. Drug(s) are then added in 0.05 mL of whole medium to the final concentrations indicated. Drugs (fenretinide, and various chain length L-threo-sphinganines) were tested both as single agents and in a 3:1 ratio of fenretinide:sphinganine. C18-L-threo-sphinganine, or “safingol,” was also tested and results shown for reference. There are 12 wells treated per drug concentration. Twelve wells receive drug vehicle-only to the appropriate final concentration and serve as controls for the plate. Cells are incubated for 96 hours at 37° C. in ambient air with 5% CO2. Fluorescein diacetate is then added to each well in 0.05 mL media to a final concentration of 8 microgram/mL. Cells are incubated for a further 15 minutes at 37° C. and 0.03 mL of 0.5% eosin Y is added to each well. Total fluorescence of viable cells is then measured by digital imaging microscopy. Results were graphed as the ratio of the fluoresecence of drug-treated wells to non-drug treated control wells (i.e., Survival Fraction). All tests were performed at least twice. Representative results are shown.
(§2) The Combination Index (CI) is a term to describe mathematical modeling of the pharmacologic effects on cytotoxicity (cell death) of two drugs in combination based. Cytotoxic “synergy” is defined as a cell death affect which is greater than would be expected from a simple product of the single agent cytotoxicities alone (i.e. an “additive” effect). By Chou-Talalay analysis, a CI<0.9 on a Fraction Affected (“Fa”, i.e. fraction of cells killed) indicates synergy, with smaller numbers indicating greater synergy; a CI of 0.9-1.1 signifies an additive or near-additive effect; and a CI>1.1 means the drug combination is antagonistic.
Fenretinide and L-threo-sphinganines tested in human pancreatic adenocarcinoma (pancreas cancer) cell line, PANC-1.

[2] = system: A-172 Glioblastoma multiforme cell line; test: DIMSCAN cytotoxicity, fenretinide + L-threo-sphinganines 3:1 (Example B4); set-up: key to CI (Combination Index): Chou-Talalay CI: <0.9 synergy, 0.9-1.1 additive, >1.1 antagonism; settings: 96 h
Protocol: as §1, §2
Fenretinide and L-threo-sphinganines tested in human Glioblastoma multiforme (brain cancer) cell line, A-172.

[3] = system: SJ-G2 Glioblastoma cell line; test: DIMSCAN cytotoxicity, fenretinide + L-threo-sphinganines 3:1 (Example B8); settings: 96 h
Protocol: as §1, §2
Fenretinide and L-threo-sphinganines tested in human Glioblastoma (brain cancer) cell line, SJ-G2.

[4] = system: U-266 Multiple Myeloma cell line; test: DIMSCAN cytotoxicity, fenretinide + L-threo-sphinganines 3:1 (Example B3); settings: 96 h
Protocol: as §1, §2
Fenretinide and L-threo-sphinganines tested in human Multiple Myeloma (a cancer of the blood and bone marrow) cell line, U-266.

[5] = system: PC-3 prostate adenocarcinoma cell line; test: DIMSCAN cytotoxicity, fenretinide + L-threo-sphinganines 3:1 (Example B17)
Protocol: as §1, §2
Fenretinide and L-threo-sphinganines tested in human prostate adenocarcinoma (prostate cancer) cell line, PC-3.

[6] = system: SJ-GBM2 Glioblastoma multiforme cell line; test: DIMSCAN cytotoxicity, fenretinide + L-threo-sphinganines 3:1 (Example B7); set-up: key to CI (Combination Index): Chou-Talalay CI: <0.9 synergy, 0.9-1.1 additive, >1.1 antagonism; settings: 96 h
Protocol: as §1, §2
Fenretinide and L-threo-sphinganines tested in human Glioblastoma multiforme (brain cancer) cell line, SJ-GBM2.

[7] = system: RPMI-8226 Multiple Myeloma cell line; test: DIMSCAN cytotoxicity, fenretinide + L-threo-sphinganines 3:1 (Example B2); settings: 96 h
Protocol: as §1, §2
Fenretinide and L-threo-sphinganines tested in human Multiple Myeloma (a cancer of the blood and bone marrow) cell line, RPMI-8226.

[8] = system: T98G Glioblastoma multiforme cell line; test: DIMSCAN cytotoxicity, fenretinide + L-threo-sphinganines 3:1 (Example B6); settings: 96 h
Protocol: as §1, §2
Fenretinide and L-threo-sphinganines tested in human Glioblastoma multiforme (brain cancer) cell line, T98G.

[9] = 4-HPR 1.5 μM + L-threo-sphinganine 0.5 μM
[10] = 4-HPR 3 μM + L-threo-sphinganine 1 μM
[11] = 4-HPR 6 μM + L-threo-sphinganine 2 μM
[12] = 4-HPR 9 μM + L-threo-sphinganine 3 μM

CCCCCCCCCCCCCCC[C@H](O)[C@@H](N)CO [C18, (2S,3S)-2-amino-1,3-octadecanediol, reference compound]
CI [1, 9]: 2.5
Fa [1, 9]: 0.136
CI [1, 10]: 2.1
Fa [1, 10]: 0.336
CI [1, 11]: 1.4
Fa [1, 11]: 0.620
CI [1, 12]: 1.5
Fa [1, 12]: 0.700
CI (Combination Index) [2, 9]: 1.3
Fa (fraction affected) [2, 9]: 0.233
CI (Combination Index) [2, 10]: 0.5
Fa (fraction affected) [2, 10]: 0.803
CI (Combination Index) [2, 11]: 0.3
Fa (fraction affected) [2, 11]: 0.956
CI (Combination Index) [2, 12]: 0.1
Fa (fraction affected) [2, 12]: 0.993
CI (Combination Index) [3, 9]: 0.7
Fa (fraction affected) [3, 9]: 0.437
CI (Combination Index) [3, 10]: 0.7
Fa (fraction affected) [3, 10]: 0.728
CI (Combination Index) [3, 11]: 0.5
Fa (fraction affected) [3, 11]: 0.950
CI (Combination Index) [3, 12]: 0.6
Fa (fraction affected) [3, 12]: 0.958
CI (Combination Index) [4, 9]: 1.4
Fa (fraction affected) [4, 9]: 0.048
CI (Combination Index) [4, 10]: 1.5
Fa (fraction affected) [4, 10]: 0.268
CI (Combination Index) [4, 11]: 1.3
Fa (fraction affected) [4, 11]: 0.883
CI (Combination Index) [4, 12]: 0.8
Fa (fraction affected) [4, 12]: 0.999
CI [5, 9]: 1.1
Fa [5, 9]: 0.202
CI [5, 10]: 1.4
Fa [5, 10]: 0.346
CI [5, 11]: 1.1
Fa [5, 11]: 0.719
CI [5, 12]: 0.7
Fa [5, 12]: 0.918
CI (Combination Index) [6, 9]: >>1
Fa (fraction affected) [6, 9]: 0.001
CI (Combination Index) [6, 10]: 0.6
Fa (fraction affected) [6, 10]: 0.712
CI (Combination Index) [6, 11]: 0.6
Fa (fraction affected) [6, 11]: 0.987
CI (Combination Index) [6, 12]: 0.7
Fa (fraction affected) [6, 12]: 0.999
CI (Combination Index) [7, 9]: 1.0
Fa (fraction affected) [7, 9]: 0.616
CI (Combination Index) [7, 10]: 0.9
Fa (fraction affected) [7, 10]: 0.879
CI (Combination Index) [7, 11]: 0.2
Fa (fraction affected) [7, 11]: 0.997
CI (Combination Index) [7, 12]: >0.1
Fa (fraction affected) [7, 12]: 1
CI (Combination Index) [8, 9]: 0.786
Fa (fraction affected) [8, 9]: 0.657
CI (Combination Index) [8, 10]: 1.316
Fa (fraction affected) [8, 10]: 0.701
CI (Combination Index) [8, 11]: 0.767
Fa (fraction affected) [8, 11]: 0.906
CI (Combination Index) [8, 12]: 0.023
Fa (fraction affected) [8, 12]: 0.999

CCCCCCCCCCCCCCCC[C@H](O)[C@@H](N)CO [C19, (2S,3S)-2-amino-1,3-nonadecanediol]
CI [1, 9]: 1.5
Fa [1, 9]: 0.182
CI [1, 10]: 1.8
Fa [1, 10]: 0.321
CI [1, 11]: 1.4
Fa [1, 11]: 0.663
CI [1, 12]: 0.1
Fa [1, 12]: 0.997
CI (Combination Index) [2, 9]: 84.4
Fa (fraction affected) [2, 9]: 0.086
CI (Combination Index) [2, 10]: 8.1
Fa (fraction affected) [2, 10]: 0.578
CI (Combination Index) [2, 11]: >0.1
Fa (fraction affected) [2, 11]: 0.998
CI (Combination Index) [2, 12]: >0.1
Fa (fraction affected) [2, 12]: 1.000
CI (Combination Index) [3, 9]: 0.7
Fa (fraction affected) [3, 9]: 0.389
CI (Combination Index) [3, 10]: 0.8
Fa (fraction affected) [3, 10]: 0.700
CI (Combination Index) [3, 11]: 0.6
Fa (fraction affected) [3, 11]: 0.975
CI (Combination Index) [3, 12]: 0.7
Fa (fraction affected) [3, 12]: 0.983
CI (Combination Index) [4, 9]: 1.0
Fa (fraction affected) [4, 9]: 0.19
CI (Combination Index) [4, 10]: 1.4
Fa (fraction affected) [4, 10]: 0.414
CI (Combination Index) [4, 11]: 0.9
Fa (fraction affected) [4, 11]: 0.933
CI (Combination Index) [4, 12]: 0.3
Fa (fraction affected) [4, 12]: 0.999
CI [5, 9]: 1.0
Fa [5, 9]: 0.233
CI [5, 10]: 1.1
Fa [5, 10]: 0.406
CI [5, 11]: 1.1
Fa [5, 11]: 0.635
CI [5, 12]: 0.5
Fa [5, 12]: 0.913
CI (Combination Index) [6, 9]: >>1
Fa (fraction affected) [6, 9]: 0.001
CI (Combination Index) [6, 10]: 0.4
Fa (fraction affected) [6, 10]: 0.672
CI (Combination Index) [6, 11]: 0.7
Fa (fraction affected) [6, 11]: 0.925
CI (Combination Index) [6, 12]: 0.8
Fa (fraction affected) [6, 12]: 0.997
CI (Combination Index) [7, 9]: 0.9
Fa (fraction affected) [7, 9]: 0.649
CI (Combination Index) [7, 10]: 0.9
Fa (fraction affected) [7, 10]: 0.895
CI (Combination Index) [7, 11]: 0.5
Fa (fraction affected) [7, 11]: 0.996
CI (Combination Index) [7, 12]: >0.1
Fa (fraction affected) [7, 12]: 1.000
CI (Combination Index) [8, 9]: 0.9
Fa (fraction affected) [8, 9]: 0.584
CI (Combination Index) [8, 10]: 1.1
Fa (fraction affected) [8, 10]: 0.704
CI (Combination Index) [8, 11]: 0.1
Fa (fraction affected) [8, 11]: 0.990
CI (Combination Index) [8, 12]: 0.1
Fa (fraction affected) [8, 12]: 0.995

From patent publication US20110152267A1, “Compositions and Methods for Treating Hyperproliferative Disorders” (Texas Tech University System, priority 2009, published 2011)
